Assay [1] concerns the target T1, hAMY3 receptor (Homo sapiens, UniProt O60896+P30988).
T1 sequence (P30988 25-474): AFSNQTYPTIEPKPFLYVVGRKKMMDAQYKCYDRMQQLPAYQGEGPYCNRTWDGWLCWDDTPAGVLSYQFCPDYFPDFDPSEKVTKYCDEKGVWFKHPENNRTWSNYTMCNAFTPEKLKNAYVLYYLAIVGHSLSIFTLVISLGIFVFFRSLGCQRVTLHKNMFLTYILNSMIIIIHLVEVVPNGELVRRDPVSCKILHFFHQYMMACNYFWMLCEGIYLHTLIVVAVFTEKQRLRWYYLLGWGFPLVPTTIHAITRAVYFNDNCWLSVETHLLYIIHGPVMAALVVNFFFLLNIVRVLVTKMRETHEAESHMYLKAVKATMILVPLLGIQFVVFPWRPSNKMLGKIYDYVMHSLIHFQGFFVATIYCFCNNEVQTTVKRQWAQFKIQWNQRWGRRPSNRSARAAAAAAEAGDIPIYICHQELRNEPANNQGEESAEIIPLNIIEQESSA
T1 sequence (O60896 24-148 partner): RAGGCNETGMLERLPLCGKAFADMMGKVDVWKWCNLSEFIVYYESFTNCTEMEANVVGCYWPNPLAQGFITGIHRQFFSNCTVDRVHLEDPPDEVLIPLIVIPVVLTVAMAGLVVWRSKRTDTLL
Kind of assay: cAMP assay for in vitro receptor activation, hAMY3-R. The class given is cell-based. To be noted: cAMP assay, hAMY3 receptor; read-out: hAMY3R EC50. The method, boiled down:
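Accumulated cAMP was detected by time-resolved FRET one hour after reagent addition. Beforehand, hAMY3-R-overexpressing monoclonal cells (2000/well, DPBS, 0.05% casein, 0.5 mM IBMX) received graded doses of compound for 30 min at room temperature; human amylin served as positive control.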
For orientation: Cyclic AMP is a second messenger, typically raised through Gs and lowered through Gi signalling.

The target of assay [2] is hAM1 receptor (Homo sapiens, UniProt O60895+Q16602). Nature of the assay: cAMP assay for in vitro receptor activation, hAM1-R. The assay is classed as cell-based. Particulars: cAMP assay, hAM1 receptor; read-out: hAM1R EC50. An outline of the steps: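 A subcloned monoclonal line stably expressing hAM1 receptor is thawed and plated at 8000 cells/well. The assay buffer is DPBS with 0.05% casein and 0.5 mM IBMX, and receptor activation is followed by cAMP levels.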
hAM1 receptor, sequence (Q16602 23-461): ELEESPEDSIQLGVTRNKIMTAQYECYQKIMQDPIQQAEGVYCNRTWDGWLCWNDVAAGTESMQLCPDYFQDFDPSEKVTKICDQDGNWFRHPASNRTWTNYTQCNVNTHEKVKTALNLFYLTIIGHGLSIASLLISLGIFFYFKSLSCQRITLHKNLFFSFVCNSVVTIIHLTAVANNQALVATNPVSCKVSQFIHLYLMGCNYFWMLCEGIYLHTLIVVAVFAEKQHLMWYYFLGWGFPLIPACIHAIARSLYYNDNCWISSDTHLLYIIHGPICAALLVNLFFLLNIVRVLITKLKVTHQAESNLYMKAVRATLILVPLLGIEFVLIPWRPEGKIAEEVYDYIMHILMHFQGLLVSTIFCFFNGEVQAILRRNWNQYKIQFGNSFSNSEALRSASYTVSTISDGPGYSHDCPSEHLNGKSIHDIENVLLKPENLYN
hAM1 receptor, sequence (O60895 43-175 partner): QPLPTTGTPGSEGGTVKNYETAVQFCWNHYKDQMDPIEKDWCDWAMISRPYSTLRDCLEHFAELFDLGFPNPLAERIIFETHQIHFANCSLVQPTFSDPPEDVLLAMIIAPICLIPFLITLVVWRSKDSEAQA

Numbered stars: 1 amine (or outer) side, 2 acyl side, 3 side chain; on linkers, the order of the positions; unused ones are H or OH. Bridge positions count the residues as written; N and C are the ends. Square brackets hold non-standard residues; d marks the D form. Side chains are listed from the residue outwards. Peptide text beside a SMILES is read from it. * marks the point of attachment. C20 diacid = O=C(O)CCCCCCCCCCCCCCCCCCC(=O)*; γGlu = O=C(O)[C@H](CCC(=O)[*:2])N[*:1]; Hyp = O=C(O)[C@@H]1C[C@@H](O)CN1; AEEA = NCCOCCOCC(=O)O

Usually EC50 stands for the concentration at which the effect is half-maximal. In the case of `CC[C@H](C)[C@H](NC(=O)[C@H](CCC(N)=O)NC(=O)[C@H](Cc1c[nH]cn1)NC(=O)[C@H](C)NC(=O)[C@H](CC(C)C)NC(=O)[C@H](CCCNC(=N)N)NC(=O)[C@H](CCC(N)=O)NC(=O)[C@@H](NC(=O)[C@@H](NC(=O)[C@@H]1CSSC[C@H](NC(=O)[C@H](CCCCN)NC(=O)CC[C@H](NC(=O)CCCCCCCCCCCCCCCCCCC(=O)O)C(=O)O)C(=O)N[C@@H](CC(N)=O)C(=O)N[C@@H]([C@@H](C)O)C(=O)N[C@@H](C)C(=O)N[C@@H]([C@@H](C)O)C(=O)N1)[C@@H](C)O)C(C)C)C(=O)N[C@@H](CCC(N)=O)C(=O)N[C@@H](CCC(N)=O)C(=O)N[C@@H](Cc1ccccc1)C(=O)N[C@H](C(=O)N[C@@H](CC(=O)O)C(=O)N[C@@H](CCCCN)C(=O)N[C@@H](CC(=O)O)C(=O)N[C@@H](CCCCN)C(=O)N[C@@H](CC(=O)O)C(=O)N[C@@H](CC(N)=O)C(=O)N[C@H](C(=O)N[C@@H](C)C(=O)N1CCC[C@H]1C(=O)N1CCC[C@H]1C(=O)N[C@H](C(=O)N[C@@H](CC(N)=O)C(=O)N[C@H](C(=O)NCC(=O)N[C@@H](CO)C(=O)N[C@@H](CC(N)=O)C(=O)NCC(=O)N1C[C@H](O)C[C@H]1C(N)=O)C(C)C)[C@@H](C)O)C(C)C)[C@@H](C)O` [compound 35] ({C20 diacid-γGlu}-KCNTATCTVQRLAHQIQQFTDKDKDNVAPPTNVGSNG[Hyp]-NH2; disulfide 2-7), the EC50 is 0.009 nM in assay [1] and more than 5000 nM in assay [2].
For `CC[C@H](C)[C@H](NC(=O)[C@H](CCC(N)=O)NC(=O)[C@H](Cc1c[nH]cn1)NC(=O)[C@H](C)NC(=O)[C@H](CC(C)C)NC(=O)[C@H](CCCNC(=N)N)NC(=O)[C@H](C)NC(=O)[C@@H](NC(=O)[C@@H](NC(=O)[C@@H]1CSSC[C@H](NC(=O)[C@H](CCCCN)NC(=O)CC[C@H](NC(=O)CCCCCCCCCCCCCCCCCCC(=O)O)C(=O)O)C(=O)N[C@@H](CC(N)=O)C(=O)N[C@@H]([C@@H](C)O)C(=O)N[C@@H](C)C(=O)N[C@@H]([C@@H](C)O)C(=O)N1)[C@@H](C)O)C(C)C)C(=O)N[C@@H](Cc1ccc(O)cc1)C(=O)N[C@@H](CCC(N)=O)C(=O)N[C@@H](Cc1ccccc1)C(=O)N[C@H](C(=O)N[C@@H](CC(=O)O)C(=O)N[C@@H](CCCCN)C(=O)N[C@@H](CC(=O)O)C(=O)N[C@@H](CCCCN)C(=O)N[C@@H](CC(=O)O)C(=O)N[C@@H](CC(N)=O)C(=O)N[C@H](C(=O)N[C@@H](C)C(=O)N1CCC[C@H]1C(=O)N1CCC[C@H]1C(=O)N[C@H](C(=O)N[C@@H](CC(N)=O)C(=O)N[C@H](C(=O)NCC(=O)N[C@@H](CO)C(=O)N[C@@H](CC(N)=O)C(=O)NCC(=O)N1C[C@H](O)C[C@H]1C(N)=O)C(C)C)[C@@H](C)O)C(C)C)[C@@H](C)O` [compound 37] ({C20 diacid-γGlu}-KCNTATCTVARLAHQIYQFTDKDKDNVAPPTNVGSNG[Hyp]-NH2; disulfide 2-7) the same measures were 0.01 nM and more than 5000 nM.
As to `CC[C@H](C)[C@H](NC(=O)[C@H](CCC(N)=O)NC(=O)[C@H](Cc1c[nH]cn1)NC(=O)[C@H](C)NC(=O)[C@H](CC(C)C)NC(=O)[C@H](CCCNC(=N)N)NC(=O)[C@H](CC(N)=O)NC(=O)[C@@H](NC(=O)[C@@H](NC(=O)[C@@H]1CSSC[C@H](NC(=O)[C@H](CCCCN)NC(=O)CC[C@H](NC(=O)CCCCCCCCCCCCCCCCCCC(=O)O)C(=O)O)C(=O)N[C@@H](CC(N)=O)C(=O)N[C@@H]([C@@H](C)O)C(=O)N[C@@H](C)C(=O)N[C@@H]([C@@H](C)O)C(=O)N1)[C@@H](C)O)C(C)C)C(=O)N[C@@H](Cc1ccc(O)cc1)C(=O)N[C@@H](CCC(N)=O)C(=O)N[C@@H](Cc1ccccc1)C(=O)N[C@H](C(=O)N[C@@H](CC(=O)O)C(=O)N[C@@H](CCCCN)C(=O)N[C@@H](CC(=O)O)C(=O)N[C@@H](CCCCN)C(=O)N[C@@H](CC(=O)O)C(=O)N[C@@H](CC(N)=O)C(=O)N[C@H](C(=O)N[C@@H](C)C(=O)N1CCC[C@H]1C(=O)N1CCC[C@H]1C(=O)N[C@H](C(=O)N[C@@H](CC(N)=O)C(=O)N[C@H](C(=O)NCC(=O)N[C@@H](CO)C(=O)N[C@@H](CC(N)=O)C(=O)NCC(=O)N1C[C@H](O)C[C@H]1C(N)=O)C(C)C)[C@@H](C)O)C(C)C)[C@@H](C)O` [compound 38] ({C20 diacid-γGlu}-KCNTATCTVNRLAHQIYQFTDKDKDNVAPPTNVGSNG[Hyp]-NH2; disulfide 2-7), the 50% effective concentration (EC50) in assay [1] was 0.01 nM; in assay [2], more than 5000 nM.
For `CC[C@H](C)[C@H](NC(=O)[C@H](CCC(N)=O)NC(=O)[C@H](Cc1c[nH]cn1)NC(=O)[C@H](C)NC(=O)[C@H](CC(C)C)NC(=O)[C@H](CCCNC(=N)N)NC(=O)[C@H](CCC(N)=O)NC(=O)[C@@H](NC(=O)[C@@H](NC(=O)[C@@H]1CSSC[C@H](NC(=O)[C@H](CCCNC(=N)N)NC(=O)CC[C@H](NC(=O)CCCCCCCCCCCCCCCCCCC(=O)O)C(=O)O)C(=O)N[C@@H](CC(N)=O)C(=O)N[C@@H]([C@@H](C)O)C(=O)N[C@@H](C)C(=O)N[C@@H]([C@@H](C)O)C(=O)N1)[C@@H](C)O)C(C)C)C(=O)N[C@@H](Cc1ccc(O)cc1)C(=O)N[C@@H](CCC(N)=O)C(=O)N[C@@H](Cc1ccccc1)C(=O)N[C@H](C(=O)N[C@@H](CC(=O)O)C(=O)N[C@@H](CCCCN)C(=O)N[C@@H](CC(=O)O)C(=O)N[C@@H](CCCCN)C(=O)N[C@@H](CC(=O)O)C(=O)N[C@@H](CC(N)=O)C(=O)N[C@H](C(=O)N[C@@H](C)C(=O)N1CCC[C@H]1C(=O)N1CCC[C@H]1C(=O)N[C@H](C(=O)N[C@@H](CC(N)=O)C(=O)N[C@H](C(=O)NCC(=O)N[C@@H](CO)C(=O)N[C@@H](CC(N)=O)C(=O)NCC(=O)N1C[C@H](O)C[C@H]1C(N)=O)C(C)C)[C@@H](C)O)C(C)C)[C@@H](C)O` [compound 39] ({C20 diacid-γGlu}-RCNTATCTVQRLAHQIYQFTDKDKDNVAPPTNVGSNG[Hyp]-NH2; disulfide 2-7) the same measures were 0.01 nM and more than 5000 nM.
The like results for `CC[C@H](C)[C@H](NC(=O)[C@H](CCC(N)=O)NC(=O)[C@H](CCC(=O)O)NC(=O)[C@H](C)NC(=O)[C@H](CC(C)C)NC(=O)[C@H](CCCNC(=N)N)NC(=O)[C@H](CCC(N)=O)NC(=O)[C@@H](NC(=O)[C@@H](NC(=O)[C@@H]1CSSC[C@H](NC(=O)[C@@H](N)CCCCN)C(=O)N[C@@H](CC(N)=O)C(=O)N[C@@H]([C@@H](C)O)C(=O)N[C@@H](C)C(=O)N[C@@H]([C@@H](C)O)C(=O)N1)[C@@H](C)O)C(C)C)C(=O)N[C@@H](Cc1ccc(O)cc1)C(=O)N[C@@H](CCC(N)=O)C(=O)N[C@@H](Cc1ccccc1)C(=O)N[C@H](C(=O)N[C@@H](CC(=O)O)C(=O)N[C@@H](CCCCN)C(=O)N[C@@H](CC(=O)O)C(=O)N[C@@H](CCCCN)C(=O)N[C@@H](CCCCNC(=O)COCCOCCNC(=O)COCCOCCNC(=O)CC[C@H](NC(=O)CCCCCCCCCCCCCCCCCCC(=O)O)C(=O)O)C(=O)N[C@@H](CC(N)=O)C(=O)N[C@H](C(=O)N[C@@H](C)C(=O)N1CCC[C@H]1C(=O)N1CCC[C@H]1C(=O)N[C@H](C(=O)N[C@@H](CC(N)=O)C(=O)N[C@H](C(=O)NCC(=O)N[C@@H](CO)C(=O)N[C@@H](CC(N)=O)C(=O)NCC(=O)N1C[C@H](O)C[C@H]1C(N)=O)C(C)C)[C@@H](C)O)C(C)C)[C@@H](C)O` [compound 40] (H-KCNTATCTVQRLAEQIYQFTDKDKK([AEEA-AEEA-γGlu-C20 diacid])NVAPPTNVGSNG[Hyp]-NH2; disulfide 2-7; N-terminus assumed) were, in that order, 0.01 nM and more than 5000 nM.

The values are drawn from patent US12139520B2 (priority 2020, dated 2024).
